# Key:
# Test in all cases: normalised viability (% of control), CellTiter-Blue; higher = more viable cells (about 100 = DMSO control)
# Conditions in all cases: incubation time: 72 h
# CAL-51 [1] = tested on: CAL-51
# Protocol: (§1)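 DSRT, CellTiter-Blue viability, 72 h incubation. Signal is normalised to DMSO and benzethonium chloride controls. Value is the normalised response at dose 6.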
# HDQ-P1 [2] = tested on: HDQ-P1
# Protocol: as §1
# MDA-MB-453 [3] = tested on: MDA-MB-453
# Protocol: as §1
# DU-4475 [4] = tested on: DU-4475
# Protocol: as §1
# CAL-85-1 [5] = tested on: CAL-85-1
# Protocol: as §1
# CAL-148 [6] = tested on: CAL-148
# Protocol: as §1
# SK-BR-3 [7] = tested on: SK-BR-3
# In short: (§2)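 Each entry is normalised viability at a single listed concentration within a series. It comes from breast cancer cell lines incubated 72 h with compound in 384-well plates, then measured with CellTiter-Blue fluorescence at 560/590 nm. Every plate was normalised between vehicle (100) and a positive kill control (0).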
# CAL-51 [8] = tested on: CAL-51; remark: listed apart in the source
# In short: as §2
# MDA-MB-436 = tested on: MDA-MB-436
# In short: as §2
# HCC1143 [9] = tested on: HCC1143
# In short: as §2
# BT-549 [10] = tested on: BT-549
# In short: as §2
# HDQ-P1 [11] = tested on: HDQ-P1; remark: listed apart in the source
# In short: as §2
# HCC1599 = tested on: HCC1599
# In short: as §2
# Hs578T = tested on: Hs578T
# In short: as §2
# CAL-120 = tested on: CAL-120
# In short: as §2
# MFM-223 = tested on: MFM-223
# In short: as §2
# MDA-MB-468 [12] = tested on: MDA-MB-468
# In short: as §2
# MDA-MB-453 [13] = tested on: MDA-MB-453; remark: listed apart in the source
# In short: as §2
# DU-4475 [14] = tested on: DU-4475; remark: listed apart in the source
# In short: as §2
# MDA-MB-231 = tested on: MDA-MB-231
# In short: as §2
# HCC1937 [15] = tested on: HCC1937
# In short: as §2
# CAL-85-1 [16] = tested on: CAL-85-1; remark: listed apart in the source
# In short: as §2
# BT-474 [17] = tested on: BT-474
# In short: as §2
# SK-BR-3 [18] = tested on: SK-BR-3; remark: listed apart in the source
# In short: as §2
# HCC1143 [19] = tested on: HCC1143; remark: listed apart in the source
# In short: as §2
# BT-549 [20] = tested on: BT-549; remark: listed apart in the source
# In short: as §2
# HDQ-P1 [21] = tested on: HDQ-P1; remark: listed apart in the source
# In short: as §2
# MDA-MB-468 [22] = tested on: MDA-MB-468; remark: listed apart in the source
# In short: as §2
# DU-4475 [23] = tested on: DU-4475; remark: listed apart in the source
# In short: as §2
# HCC1937 [24] = tested on: HCC1937; remark: listed apart in the source
# In short: as §2
# CAL-85-1 [25] = tested on: CAL-85-1; remark: listed apart in the source
# In short: as §2
# BT-474 [26] = tested on: BT-474; remark: listed apart in the source
# In short: as §2
# CAL-148 [27] = tested on: CAL-148; remark: listed apart in the source
# In short: as §2
smiles,measurement,setting,value
CCCCCCCCc1ccc(CCC(N)(CO)CO)cc1 [Fingolimod],normalised viability,CAL-51 [1]; 300 nM,113%
same,normalised viability,HDQ-P1 [2]; 300 nM,87.4%
same,normalised viability,MDA-MB-453 [3]; 300 nM,107%
same,normalised viability,DU-4475 [4]; 300 nM,99.3%
same,normalised viability,CAL-85-1 [5]; 300 nM,93.1%
same,normalised viability,CAL-148 [6]; 300 nM,93.7%
same,normalised viability,SK-BR-3 [7]; 1000 nM,108%
same,normalised viability,CAL-51 [8]; 30 nM,111%
same,normalised viability,MDA-MB-436; 1000 nM,81.4%
same,normalised viability,HCC1143 [9]; 1000 nM,106%
same,normalised viability,BT-549 [10]; 1000 nM,88.7%
same,normalised viability,HDQ-P1 [11]; 30 nM,126%
same,normalised viability,HCC1599; 1000 nM,113%
same,normalised viability,Hs578T; 1000 nM,100%
same,normalised viability,CAL-120; 1000 nM,88.5%
same,normalised viability,MFM-223; 1000 nM,106%
same,normalised viability,MDA-MB-468 [12]; 1000 nM,105%
same,normalised viability,MDA-MB-453 [13]; 30 nM,100%
same,normalised viability,DU-4475 [14]; 30 nM,119%
same,normalised viability,MDA-MB-231; 1000 nM,86.8%
same,normalised viability,HCC1937 [15]; 1000 nM,95.4%
same,normalised viability,CAL-85-1 [16]; 30 nM,87.1%
same,normalised viability,BT-474 [17]; 1000 nM,113%
same,normalised viability,SK-BR-3 [18]; 100 nM,85.8%
same,normalised viability,HCC1143 [19]; 100 nM,106%
same,normalised viability,BT-549 [20]; 100 nM,117%
same,normalised viability,HDQ-P1 [21]; 10 nM,119%
same,normalised viability,MDA-MB-468 [22]; 100 nM,101%
same,normalised viability,DU-4475 [23]; 10 nM,113%
same,normalised viability,HCC1937 [24]; 100 nM,99%
same,normalised viability,CAL-85-1 [25]; 10 nM,103%
same,normalised viability,BT-474 [26]; 100 nM,119%
same,normalised viability,CAL-148 [27]; 10 nM,87.3%
O=C(O)CCCc1ccc(N(CCCl)CCCl)cc1 [Chlorambucil],normalised viability,CAL-51 [1]; 300 nM,104%
same,normalised viability,HDQ-P1 [2]; 300 nM,85.8%
same,normalised viability,MDA-MB-453 [3]; 300 nM,103%
same,normalised viability,DU-4475 [4]; 300 nM,90.9%
same,normalised viability,CAL-85-1 [5]; 300 nM,105%
same,normalised viability,CAL-148 [6]; 300 nM,110%
same,normalised viability,SK-BR-3 [7]; 1000 nM,105%
same,normalised viability,CAL-51 [8]; 30 nM,112%
same,normalised viability,MDA-MB-436; 1000 nM,91.8%
same,normalised viability,HCC1143 [9]; 1000 nM,93.9%
same,normalised viability,BT-549 [10]; 1000 nM,102%
same,normalised viability,HDQ-P1 [11]; 30 nM,94.1%
same,normalised viability,HCC1599; 1000 nM,97.1%
same,normalised viability,Hs578T; 1000 nM,102%
same,normalised viability,CAL-120; 1000 nM,98.5%
same,normalised viability,MFM-223; 1000 nM,106%
same,normalised viability,MDA-MB-468 [12]; 1000 nM,68.3%
same,normalised viability,MDA-MB-453 [13]; 30 nM,94.3%
same,normalised viability,DU-4475 [14]; 30 nM,92%
same,normalised viability,MDA-MB-231; 1000 nM,109%
same,normalised viability,HCC1937 [15]; 1000 nM,68.7%
same,normalised viability,CAL-85-1 [16]; 30 nM,92.7%
same,normalised viability,BT-474 [17]; 1000 nM,112%
same,normalised viability,SK-BR-3 [18]; 100 nM,97.8%
same,normalised viability,HCC1143 [19]; 100 nM,104%
same,normalised viability,BT-549 [20]; 100 nM,100%
same,normalised viability,HDQ-P1 [21]; 10 nM,112%
same,normalised viability,MDA-MB-468 [22]; 100 nM,99.8%
same,normalised viability,DU-4475 [23]; 10 nM,109%
same,normalised viability,HCC1937 [24]; 100 nM,87.9%
same,normalised viability,CAL-85-1 [25]; 10 nM,96%
same,normalised viability,BT-474 [26]; 100 nM,115%
same,normalised viability,CAL-148 [27]; 10 nM,100%
Cc1cc2c(C(C)C)c(O)c(O)c(C=O)c2c(O)c1-c1c(C)cc2c(C(C)C)c(O)c(O)c(C=O)c2c1O [Gossypol],normalised viability,CAL-51 [1]; 3000 nM,96.6%
same,normalised viability,HDQ-P1 [2]; 3000 nM,105%
same,normalised viability,MDA-MB-453 [3]; 3000 nM,62.9%
same,normalised viability,DU-4475 [4]; 3000 nM,49.2%
same,normalised viability,CAL-85-1 [5]; 3000 nM,80.2%
same,normalised viability,CAL-148 [6]; 3000 nM,114%
same,normalised viability,SK-BR-3 [7]; 10000 nM,28.6%
same,normalised viability,CAL-51 [8]; 300 nM,94.2%
same,normalised viability,MDA-MB-436; 10000 nM,14.9%
same,normalised viability,HCC1143 [9]; 10000 nM,49%
same,normalised viability,BT-549 [10]; 10000 nM,19.5%
same,normalised viability,HDQ-P1 [11]; 300 nM,141%
same,normalised viability,HCC1599; 10000 nM,47.2%
same,normalised viability,Hs578T; 10000 nM,6%
same,normalised viability,CAL-120; 10000 nM,37.5%
same,normalised viability,MFM-223; 10000 nM,23.3%
same,normalised viability,MDA-MB-468 [12]; 10000 nM,6.5%
same,normalised viability,MDA-MB-453 [13]; 300 nM,103%
same,normalised viability,DU-4475 [14]; 300 nM,93.9%
same,normalised viability,MDA-MB-231; 10000 nM,22.8%
same,normalised viability,HCC1937 [15]; 10000 nM,23.3%
same,normalised viability,CAL-85-1 [16]; 300 nM,87.3%
same,normalised viability,BT-474 [17]; 10000 nM,21.5%
same,normalised viability,SK-BR-3 [18]; 1000 nM,92.9%
same,normalised viability,HCC1143 [19]; 1000 nM,98.2%
same,normalised viability,BT-549 [20]; 1000 nM,95%
same,normalised viability,HDQ-P1 [21]; 100 nM,126%
same,normalised viability,MDA-MB-468 [22]; 1000 nM,58.1%
same,normalised viability,DU-4475 [23]; 100 nM,99.7%
same,normalised viability,HCC1937 [24]; 1000 nM,91.7%
same,normalised viability,CAL-85-1 [25]; 100 nM,97.3%
same,normalised viability,BT-474 [26]; 1000 nM,113%
same,normalised viability,CAL-148 [27]; 100 nM,105%
CN(C)CCN1C(=O)c2cccc3cc(N)cc(c23)C1=O [Amonafide],normalised viability,CAL-51 [1]; 300 nM,109%
same,normalised viability,HDQ-P1 [2]; 300 nM,67.5%
same,normalised viability,MDA-MB-453 [3]; 300 nM,92.5%
same,normalised viability,DU-4475 [4]; 300 nM,92.3%
same,normalised viability,CAL-85-1 [5]; 300 nM,91.7%
same,normalised viability,CAL-148 [6]; 300 nM,89.8%
same,normalised viability,SK-BR-3 [7]; 1000 nM,98.7%
same,normalised viability,CAL-51 [8]; 30 nM,102%
same,normalised viability,MDA-MB-436; 1000 nM,95.7%
same,normalised viability,HCC1143 [9]; 1000 nM,86.3%
same,normalised viability,BT-549 [10]; 1000 nM,102%
same,normalised viability,HDQ-P1 [11]; 30 nM,104%
same,normalised viability,HCC1599; 1000 nM,101%
same,normalised viability,Hs578T; 1000 nM,115%
same,normalised viability,CAL-120; 1000 nM,78.7%
same,normalised viability,MFM-223; 1000 nM,99.3%
same,normalised viability,MDA-MB-468 [12]; 1000 nM,106%
same,normalised viability,MDA-MB-453 [13]; 30 nM,85.7%
same,normalised viability,DU-4475 [14]; 30 nM,83.2%
same,normalised viability,MDA-MB-231; 1000 nM,67.8%
same,normalised viability,HCC1937 [15]; 1000 nM,69.2%
same,normalised viability,CAL-85-1 [16]; 30 nM,79.8%
same,normalised viability,BT-474 [17]; 1000 nM,108%
same,normalised viability,SK-BR-3 [18]; 100 nM,76%
same,normalised viability,HCC1143 [19]; 100 nM,87%
same,normalised viability,BT-549 [20]; 100 nM,94.9%
same,normalised viability,HDQ-P1 [21]; 10 nM,105%
same,normalised viability,MDA-MB-468 [22]; 100 nM,113%
same,normalised viability,DU-4475 [23]; 10 nM,95.8%
same,normalised viability,HCC1937 [24]; 100 nM,109%
same,normalised viability,CAL-85-1 [25]; 10 nM,91.6%
same,normalised viability,BT-474 [26]; 100 nM,119%
same,normalised viability,CAL-148 [27]; 10 nM,85.2%

# — the supplement of paper PMC4862054
